Experimental data reported in US20230085307A1, “PYRIDAZINONE COMPOUND AND HERBICIDE” (NISSAN CHEMICAL CORPORATION, priority 2019, published 2023).

Assays:
barnyard grass [1] = assay: Test Example 3: herbicidal effect by foliage application, Wagner pot (Table 18, symbol H); assay type: in vivo, barnyard grass (Echinochloa crus-galli); details: for Herbicidal effect on H (barnyard grass), foliage application: amount of applied herbicide 320 g/ha
Method in brief: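 Plants were sown in alluvial soil held under 0.1–0.5 cm standing water and grown 14 days in a greenhouse at 25–30 °C. An emulsifiable formulation, water-diluted to the set dose, was then sprayed onto the foliage, and effects were scored three weeks later using previously defined criteria.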

velvetleaf = assay: Test Example 5: herbicidal effect by foliage application, plastic box (Table 20, symbol M); assay type: in vivo, velvetleaf (Abutilon theophrasti); details: foliage application, 320 g/ha, three weeks after application
Method in brief: (§1)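 Plants sown in sterilized diluvial soil and grown 14 days in a greenhouse at 25° C to 30° C, then sprayed on the foliage with the compound's emulsion diluted in water to a predetermined herbicide amount. Injury to weeds and crops scored three weeks after application on a visual rating scale.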

Japanese bulrush [2] = assay: Test Example 2: herbicidal activity, application during weed generation under submerged conditions (Table 17, symbol B); assay type: in vivo, Japanese bulrush (Schoenoplectus juncoides); details: AAH 320 g/ha; application during weed generation, submerged conditions
Method in brief: (§2)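 Herbicide emulsion, diluted with water to the chosen amount, is applied onto 4 cm floodwater over alluvial soil where the weeds were co-sown and raised at 25–30° C. Application timing: 1–2 leaves. Assessment: three weeks afterwards.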

blackgrass [3] = assay: Test Example 4: herbicidal effect by soil treatment (Table 19, symbol J); assay type: in vivo, blackgrass (Alopecurus myosuroides); details: amount of applied herbicide 320 g/ha
Method in brief: (§3)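 Three weeks of greenhouse growth at 25° C. to 30° C. followed a uniform surface spray of water-diluted emulsion at a predetermined herbicide amount. Seeds had been sown beforehand under about 1.5 cm of sterilized diluvial soil. Grading followed criteria set out in an earlier test.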

late watergrass [4] = assay: Test Example 2: herbicidal activity, application during weed generation under submerged conditions (Table 17, symbol A); assay type: in vivo, late watergrass (Echinochloa oryzicola); details: AAH 320 g/ha; application during weed generation, submerged conditions
Method in brief: as §2

late watergrass [5] = assay: Test Example 1: herbicidal activity, application before weed generation under submerged conditions (Table 16, symbol A); assay type: in vivo, late watergrass (Echinochloa oryzicola); details: amount of applied herbicide 320 g/ha
Method in brief: (§4)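 Emulsion formulation, water-diluted to set dose, was put onto the flooded surface (4 cm depth, alluvial soil) the same day weeds were sown and 2.5-leaf rice transplanted. After 3 weeks at 25-30 °C under glass, each species was rated 0 (≤5% kill) to 5 (≥90% kill).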

persian speedwell = assay: Test Example 4: herbicidal effect by soil treatment (Table 19, symbol R); assay type: in vivo, Persian speedwell (Veronica persica); details: amount of applied herbicide 320 g/ha
Method in brief: as §3

Italian ryegrass [6] = assay: Test Example 4: herbicidal effect by soil treatment (Table 19, symbol K); assay type: in vivo, Italian ryegrass (Lolium multiflorum); details: amount of applied herbicide 320 g/ha
Method in brief: as §3

barnyard grass [7] = assay: Test Example 4: herbicidal effect by soil treatment (Table 19, symbol H); assay type: in vivo, barnyard grass (Echinochloa crus-galli); details: amount of applied herbicide 320 g/ha
Method in brief: as §3

green foxtail = assay: Test Example 4: herbicidal effect by soil treatment (Table 19, symbol G); assay type: in vivo, green foxtail (Setaria viridis); details: amount of applied herbicide 320 g/ha
Method in brief: as §3

Italian ryegrass [8] = assay: Test Example 5: herbicidal effect by foliage application, plastic box (Table 20, symbol K); assay type: in vivo, Italian ryegrass (Lolium multiflorum); details: foliage application, 320 g/ha, three weeks after application
Method in brief: as §1

Japanese bulrush [9] = assay: Test Example 1: herbicidal activity, application before weed generation under submerged conditions (Table 16, symbol B); assay type: in vivo, Japanese bulrush (Schoenoplectus juncoides); details: amount of applied herbicide 320 g/ha
Method in brief: as §4

wild oat [10] = assay: Test Example 5: herbicidal effect by foliage application, plastic box (Table 20, symbol I); assay type: in vivo, wild oat (Avena fatua); details: foliage application, 320 g/ha, three weeks after application
Method in brief: as §1

chickweed = assay: Test Example 4: herbicidal effect by soil treatment (Table 19, symbol P); assay type: in vivo, common chickweed (Stellaria media); details: amount of applied herbicide 320 g/ha
Method in brief: as §3

wild oat [11] = assay: Test Example 4: herbicidal effect by soil treatment (Table 19, symbol I); assay type: in vivo, wild oat (Avena fatua); details: amount of applied herbicide 320 g/ha
Method in brief: as §3

blackgrass [12] = assay: Test Example 5: herbicidal effect by foliage application, plastic box (Table 20, symbol J); assay type: in vivo, blackgrass (Alopecurus myosuroides); details: foliage application, 320 g/ha, three weeks after application
Method in brief: as §1

SMILES | Herbicidal effect on H (barnyard grass), foliage application (barnyard grass [1]) | herbicidal effect on velvetleaf (M) (velvetleaf) | herbicidal effect rating, B: Japanese bulrush (Japanese bulrush [2]) | J: blackgrass, herbicidal effect grade (blackgrass [3]) | herbicidal effect rating, A: late watergrass (late watergrass [4]) | Herbicidal effect, A: late watergrass (late watergrass [5]) | R: persian speedwell, herbicidal effect grade (persian speedwell) | K: Italian ryegrass, herbicidal effect grade (Italian ryegrass [6]) | H: barnyard grass, herbicidal effect grade (barnyard grass [7]) | G: green foxtail, herbicidal effect grade (green foxtail) | herbicidal effect on Italian ryegrass (K) (Italian ryegrass [8]) | Herbicidal effect, B: Japanese bulrush (Japanese bulrush [9]) | herbicidal effect on wild oat (I) (wild oat [10]) | P: chickweed, herbicidal effect grade (chickweed) | I: wild oat, herbicidal effect grade (wild oat [11]) | herbicidal effect on blackgrass (J) (blackgrass [12]) | herbicidal effect on barnyard grass (H) (barnyard grass [1]; 320 g/ha)
COc1ccc(-c2oc3ccc(F)cc3c2-c2c(O)c(C)nn(C)c2=O)cc1 [Compound No. 9-020, 4-(5-fluoro-2-(4-methoxyphenyl)benzofuran-3-yl)-5-hydroxy-2,6-dimethylpyridazin-3(2H)-one] | 5 (Herbicidal rate of 90% or more (almost completely withered)) | 5 (Herbicidal rate of 90% or more (almost completely withered)) | 3 (Herbicidal rate of 40% or more and less than 70%) | 3 (Herbicidal rate of 40% or more and less than 70%) | 3 (Herbicidal rate of 40% or more and less than 70%) | 5 (Herbicidal rate of 90% or more (almost completely withered)) | 5 (Herbicidal rate of 90% or more (almost completely withered)) | 5 (Herbicidal rate of 90% or more (almost completely withered)) | 4 (Herbicidal rate of 70% or more and less than 90%) | 1 (Herbicidal rate of 5% or more and less than 20%) | 4 (Herbicidal rate of 70% or more and less than 90%) | 5 (Herbicidal rate of 90% or more (almost completely withered)) | 3 (Herbicidal rate of 40% or more and less than 70%) | 4 (Herbicidal rate of 70% or more and less than 90%) | 2 (Herbicidal rate of 20% or more and less than 40%) | 4 (Herbicidal rate of 70% or more and less than 90%) | 
Cc1ccc2oc(-c3ccc4c(c3)OCCO4)c(-c3c(O)c(C)nn(C)c3=O)c2c1 [9-012] | 4 (Herbicidal rate of 70% or more and less than 90%) | 5 (Herbicidal rate of 90% or more (almost completely withered)) | 4 (Herbicidal rate of 70% or more and less than 90%) | 0 (Herbicidal rate of 5% or less (almost no effect)) | 1 (Herbicidal rate of 5% or more and less than 20%) | 4 (Herbicidal rate of 70% or more and less than 90%) | 4 (Herbicidal rate of 70% or more and less than 90%) | 4 (Herbicidal rate of 70% or more and less than 90%) | 2 (Herbicidal rate of 20% or more and less than 40%) | 3 (Herbicidal rate of 40% or more and less than 70%) | 5 (Herbicidal rate of 90% or more (almost completely withered)) | 5 (Herbicidal rate of 90% or more (almost completely withered)) | 0 (Herbicidal rate of 5% or less (almost no effect)) | 3 (Herbicidal rate of 40% or more and less than 70%) | 0 (Herbicidal rate of 5% or less (almost no effect)) | 0 (Herbicidal rate of 5% or less (almost no effect)) | 
C=CCOc1ccc(-c2oc3ccccc3c2-c2c(O)c(C)nn(C)c2=O)cc1 [8-004] | 5 (Herbicidal rate of 90% or more (almost completely withered)) | 2 (Herbicidal rate of 20% or more and less than 40%) | 3 (Herbicidal rate of 40% or more and less than 70%) | 0 (Herbicidal rate of 5% or less (almost no effect)) | 3 (Herbicidal rate of 40% or more and less than 70%) | 5 (Herbicidal rate of 90% or more (almost completely withered)) | 3 (Herbicidal rate of 40% or more and less than 70%) | 4 (Herbicidal rate of 70% or more and less than 90%) | 4 (Herbicidal rate of 70% or more and less than 90%) | 3 (Herbicidal rate of 40% or more and less than 70%) | 4 (Herbicidal rate of 70% or more and less than 90%) | 5 (Herbicidal rate of 90% or more (almost completely withered)) | 3 (Herbicidal rate of 40% or more and less than 70%) | 1 (Herbicidal rate of 5% or more and less than 20%) | 0 (Herbicidal rate of 5% or less (almost no effect)) | 3 (Herbicidal rate of 40% or more and less than 70%) | 
CCCC(=O)Oc1c(C)nn(C)c(=O)c1-c1c(-c2ccc(F)cc2)sc2cc(C)c(C)cc12 [5-089] |  | 0 (Herbicidal rate of 5% or less (almost no effect)) | 0 (Herbicidal rate of 5% or less (almost no effect)) | 0 (Herbicidal rate of 5% or less (almost no effect)) | 3 (Herbicidal rate of 40% or more and less than 70%) | 3 (Herbicidal rate of 40% or more and less than 70%) | 0 (Herbicidal rate of 5% or less (almost no effect)) | 0 (Herbicidal rate of 5% or less (almost no effect)) | 0 (Herbicidal rate of 5% or less (almost no effect)) | 0 (Herbicidal rate of 5% or less (almost no effect)) | 0 (Herbicidal rate of 5% or less (almost no effect)) | 0 (Herbicidal rate of 5% or less (almost no effect)) | 0 (Herbicidal rate of 5% or less (almost no effect)) | 0 (Herbicidal rate of 5% or less (almost no effect)) | 0 (Herbicidal rate of 5% or less (almost no effect)) | 0 (Herbicidal rate of 5% or less (almost no effect)) | 1 (Herbicidal rate of 5% or more and less than 20%)
Cc1nn(C)c(=O)c(-c2c(-c3ccc(OC(C)C)cc3)oc3ccc(F)cc23)c1O [9-025] | 5 (Herbicidal rate of 90% or more (almost completely withered)) | 5 (Herbicidal rate of 90% or more (almost completely withered)) | 3 (Herbicidal rate of 40% or more and less than 70%) | 3 (Herbicidal rate of 40% or more and less than 70%) | 4 (Herbicidal rate of 70% or more and less than 90%) | 5 (Herbicidal rate of 90% or more (almost completely withered)) | 4 (Herbicidal rate of 70% or more and less than 90%) | 5 (Herbicidal rate of 90% or more (almost completely withered)) | 4 (Herbicidal rate of 70% or more and less than 90%) | 5 (Herbicidal rate of 90% or more (almost completely withered)) | 5 (Herbicidal rate of 90% or more (almost completely withered)) | 5 (Herbicidal rate of 90% or more (almost completely withered)) | 3 (Herbicidal rate of 40% or more and less than 70%) | 0 (Herbicidal rate of 5% or less (almost no effect)) | 0 (Herbicidal rate of 5% or less (almost no effect)) | 4 (Herbicidal rate of 70% or more and less than 90%) | 
